# Measurements from patent US20170042193A1, “Pet Food Compositions Having Antimicrobial Activity” (priority 2010, published 2017).
# Where two headings read alike, the source gives them in different places.
# Key:
# Assay type in all cases: cell-based
# [1] = tested on: Salmonella (S. aarhus, S. muenster E1 & S. worthington); settings: for inhibition of Salmonella, clear zone around the kibbles: coated kibbles, overnight at 30° C.; for Zone of Inhibition-Diameter, Mean / Zone of Inhibition-Diameter, REP I Plate 1 / Zone of Inhibition-Diameter, REP I Plate 2 / Zone of Inhibition-Diameter, REP II Plate 1 / Zone of Inhibition-Diameter, REP II Plate 2 / Zone of Inhibition-Diameter, REP III Plate 1 / Zone of Inhibition-Diameter, REP III Plate 2: kibble coated
# Description: The kibble diffusion test has similar principles as the disk diffusion method. […] […] Efficacy of the AMI was validated by measuring how closely the Salmonella cultures grew with respect to the saturated kibbles.
# Commercial canine and feline adult pet food compositions in the form of kibbles were coated with potential AMIs. […] After incubation overnight at 30° C., plates were analyzed for presence of clear zones around the kibbles.
# [2] = tested on: Salmonella (S. aarhus, S. muenster E1 and S. worthington); design: key to Salmonella growth or inhibition (MIC test): −: negative sign means inhibition; +: positive sign denotes growth
# Description: The minimum inhibitory concentration (MIC) of an antimicrobial ingredient is defined as the maximum dilution of the product that will still inhibit the growth of Salmonella. Serial dilutions (0-3%, except for oregano 0-0.3%) were made of the AMI in bacterial growth media and poured in test tubes. The test organisms (S. aarhus, S. muenster E1 and S. worthington) were then added to the dilutions of the AMI ingredients to a final concentration of 10^6 or 10^3 cfu/g, incubated overnight at 30° C., and scored for growth by turbidity or plate counts.
# Minimum Inhibitory Concentration was conducted for 10^3 and 10^6 cfu/g Salmonella. Results reported as negative sign means inhibition, while positive sign denotes growth.
# [3] = tested on: Salmonella; assay: Scale up challenge testing of canine kibble with Propionic Acid at simulated process steps
# Text: Canine adult pet food compositions with Propionic Acid were produced. Samples were taken to simulate different steps of the process. […] Moisture target was about 20%. 2) The dryer temperature was reduced and belt speed increased. […] Moisture target was about 15%. […] Moisture target was about 8%.
# Kibble with intermediate moisture (15% and 20%) was cooled to prevent condensation in the bag and not encourage mold growth.
# Extruder, dryer, uncoated base and finished product samples (10 kg each) were inoculated with Salmonella 10^6 cfu/g.
# Uncoated base samples were coated with topicals (palatants and fat) after inoculation (Table 10).
# Samples were split and incubated in a 30, 50 or 70° C. incubator.
# Samples at 70° C. were plated after 0, 15, 30 and 60 minutes.
# Samples at 50° C. were plated after 0, 30, 60 and 240 minutes.
# Samples at 30° C. were plated after 0, 1, 2, 3, 8 and 15 days.
# [4] = 10^3 cfu/g Salmonella, antimicrobial level 0.03%
# [5] = 10^3 cfu/g Salmonella, antimicrobial level 0.15%
# [6] = 10^3 cfu/g Salmonella, antimicrobial level 0.3%
# [7] = 10^3 cfu/g Salmonella, antimicrobial level 0.9%
# [8] = 10^3 cfu/g Salmonella, antimicrobial level 1.5%
# [9] = 10^3 cfu/g Salmonella, antimicrobial level 2.1%
# [10] = 10^3 cfu/g Salmonella, antimicrobial level 3%
# [11] = 10^3 cfu/g Salmonella, antimicrobial level […]
# [12] = 10^6 cfu/g Salmonella, antimicrobial level 0.03%
# [13] = 10^6 cfu/g Salmonella, antimicrobial level 0.15%
# [14] = 10^6 cfu/g Salmonella, antimicrobial level 0.3%
# [15] = 10^6 cfu/g Salmonella, antimicrobial level 0.9%
# [16] = 10^6 cfu/g Salmonella, antimicrobial level 1.5%
# [17] = 10^6 cfu/g Salmonella, antimicrobial level 2.1%
# [18] = 10^6 cfu/g Salmonella, antimicrobial level 3%
# [19] = 10^6 cfu/g Salmonella, antimicrobial level […]
smiles,measurement,setting,value
"CCC(=O)[O-].CCC(=O)[O-].[Ca+2] [Ca propionate liquid, Ca propionate]","inhibition of Salmonella, clear zone around the kibbles",[1],inhibited Salmonella
same,"Zone of Inhibition-Diameter, Mean",[1]; 1% solution,9 mm
same,"Zone of Inhibition-Diameter, REP I Plate 1",[1]; 1% solution,5 mm
same,"Zone of Inhibition-Diameter, REP I Plate 2",[1]; 1% solution,16 mm
same,"Zone of Inhibition-Diameter, REP II Plate 1",[1]; 1% solution,4 mm
same,"Zone of Inhibition-Diameter, REP II Plate 2",[1]; 1% solution,9 mm
same,"Zone of Inhibition-Diameter, REP III Plate 1",[1]; 1% solution,9 mm
same,"Zone of Inhibition-Diameter, REP III Plate 2",[1]; 1% solution,9 mm
same,"Zone of Inhibition-Diameter, Mean",[1]; 2% solution,17 mm
same,"Zone of Inhibition-Diameter, REP I Plate 1",[1]; 2% solution,19 mm
same,"Zone of Inhibition-Diameter, REP I Plate 2",[1]; 2% solution,14 mm
same,"Zone of Inhibition-Diameter, REP II Plate 1",[1]; 2% solution,18 mm
same,"Zone of Inhibition-Diameter, REP II Plate 2",[1]; 2% solution,19 mm
same,"Zone of Inhibition-Diameter, REP III Plate 1",[1]; 2% solution,16 mm
same,"Zone of Inhibition-Diameter, REP III Plate 2",[1]; 2% solution,14 mm
same,"Zone of Inhibition-Diameter, Mean",[1]; 3% solution,21 mm
same,"Zone of Inhibition-Diameter, REP I Plate 1",[1]; 3% solution,20 mm
same,"Zone of Inhibition-Diameter, REP I Plate 2",[1]; 3% solution,15 mm
same,"Zone of Inhibition-Diameter, REP II Plate 1",[1]; 3% solution,19 mm
same,"Zone of Inhibition-Diameter, REP II Plate 2",[1]; 3% solution,25 mm
same,"Zone of Inhibition-Diameter, REP III Plate 1",[1]; 3% solution,24 mm
same,"Zone of Inhibition-Diameter, REP III Plate 2",[1]; 3% solution,25 mm
CCCCCCCCCCCC(=O)N[C@@H](CCCN=C(N)N)C(=O)OCC [Lauric Arginate],MIC needed to inhibit Salmonella,[2]; 10^3 and 10^6 cfu/g Salmonella,0.15%
same,Salmonella growth or inhibition (MIC test),[2]; [4],−
same,Salmonella growth or inhibition (MIC test),[2]; [5],−
same,Salmonella growth or inhibition (MIC test),[2]; [6],−
same,Salmonella growth or inhibition (MIC test),[2]; [7],−
same,Salmonella growth or inhibition (MIC test),[2]; [8],−
same,Salmonella growth or inhibition (MIC test),[2]; [9],−
same,Salmonella growth or inhibition (MIC test),[2]; [10],−
same,Salmonella growth or inhibition (MIC test),[2]; [11],−
same,Salmonella growth or inhibition (MIC test),[2]; [12],−
same,Salmonella growth or inhibition (MIC test),[2]; [13],−
same,Salmonella growth or inhibition (MIC test),[2]; [14],−
same,Salmonella growth or inhibition (MIC test),[2]; [15],−
same,Salmonella growth or inhibition (MIC test),[2]; [16],−
same,Salmonella growth or inhibition (MIC test),[2]; [17],−
same,Salmonella growth or inhibition (MIC test),[2]; [18],−
same,Salmonella growth or inhibition (MIC test),[2]; [19],−
CCC(=O)O [Propionic Acid],"inhibition of Salmonella, clear zone around the kibbles",[1],inhibited Salmonella
same,"Zone of Inhibition-Diameter, Mean",[1]; 0.65%,9 mm
same,"Zone of Inhibition-Diameter, REP I Plate 1",[1]; 0.65%,8 mm
same,"Zone of Inhibition-Diameter, REP I Plate 2",[1]; 0.65%,10 mm
same,"Zone of Inhibition-Diameter, REP II Plate 1",[1]; 0.65%,5 mm
same,"Zone of Inhibition-Diameter, REP II Plate 2",[1]; 0.65%,10 mm
same,"Zone of Inhibition-Diameter, REP III Plate 1",[1]; 0.65%,13 mm
same,"Zone of Inhibition-Diameter, REP III Plate 2",[1]; 0.65%,5 mm
same,"Zone of Inhibition-Diameter, Mean",[1]; 2%,40 mm
same,"Zone of Inhibition-Diameter, REP I Plate 1",[1]; 2%,47 mm
same,"Zone of Inhibition-Diameter, REP I Plate 2",[1]; 2%,49 mm
same,"Zone of Inhibition-Diameter, REP II Plate 1",[1]; 2%,47 mm
same,"Zone of Inhibition-Diameter, REP II Plate 2",[1]; 2%,43 mm
same,"Zone of Inhibition-Diameter, REP III Plate 1",[1]; 2%,30 mm
same,"Zone of Inhibition-Diameter, REP III Plate 2",[1]; 2%,25 mm
same,"Zone of Inhibition-Diameter, Mean",[1]; 3%,31 mm
same,"Zone of Inhibition-Diameter, REP I Plate 1",[1]; 3%,30 mm
same,"Zone of Inhibition-Diameter, REP I Plate 2",[1]; 3%,28 mm
same,"Zone of Inhibition-Diameter, REP II Plate 1",[1]; 3%,31 mm
same,"Zone of Inhibition-Diameter, REP II Plate 2",[1]; 3%,34 mm
same,"Zone of Inhibition-Diameter, REP III Plate 1",[1]; 3%,33 mm
same,"Zone of Inhibition-Diameter, REP III Plate 2",[1]; 3%,30 mm
same,"Zone of Inhibition-Diameter, Mean",[1]; 3% (in CWG),31 mm
same,"Zone of Inhibition-Diameter, REP I Plate 1",[1]; 3% (in CWG),34 mm
same,"Zone of Inhibition-Diameter, REP I Plate 2",[1]; 3% (in CWG),34 mm
same,"Zone of Inhibition-Diameter, REP II Plate 1",[1]; 3% (in CWG),28 mm
same,"Zone of Inhibition-Diameter, REP II Plate 2",[1]; 3% (in CWG),31 mm
same,"Zone of Inhibition-Diameter, REP III Plate 1",[1]; 3% (in CWG),28 mm
same,"Zone of Inhibition-Diameter, REP III Plate 2",[1]; 3% (in CWG),31 mm
same,"Zone of Inhibition-Diameter, Mean",[1]; […],21 mm
same,"Zone of Inhibition-Diameter, REP I Plate 1",[1]; […],25 mm
same,"Zone of Inhibition-Diameter, REP I Plate 2",[1]; […],18 mm
same,"Zone of Inhibition-Diameter, REP II Plate 1",[1]; […],25 mm
same,"Zone of Inhibition-Diameter, REP II Plate 2",[1]; […],25 mm
same,"Zone of Inhibition-Diameter, REP III Plate 1",[1]; […],13 mm
same,"Zone of Inhibition-Diameter, REP III Plate 2",[1]; […],20 mm
same,reduction of Salmonella compared with untreated control,"[3]; 1, 2 and 3% topically applied",reduced Salmonella by two log cycles more than an untreated control
same,reduction of Salmonella compared with untreated control,[3]; 2 and 3% topical/preconditioner,reduced Salmonella by two log cycles more than an untreated control
same,reduction of Salmonella compared with untreated control,[3]; 3% in preconditioner,reduced Salmonella by two log cycles more than an untreated control
same,efficacy against Salmonella at points of processing,"[3]; concentrations of 1%, 2%, and 3%",efficacious against Salmonella at all points of processing
same,effect on Salmonella,"[3]; finished product contaminated after enrober, 2% and 3% added topical/preconditioner",positive effect
same,effect on Salmonella,"[3]; finished product contaminated after enrober, topical application of 1%, 2% and 3%",positive effect
same,effect on Salmonella,"[3]; product coated and inoculated (finished product contaminated after enrober), 3% in the preconditioner",some immediate effect
same,reduction of Salmonella compared with control,"[3]; product simulating entry to the airlift, evaporative cooling, dryer after surface cooling, 1%, 2%, and 3%",Reduction of two logs more than control
same,Salmonella growth or inhibition (MIC test),[2]; [4],+
same,Salmonella growth or inhibition (MIC test),[2]; [5],+
same,Salmonella growth or inhibition (MIC test),[2]; [6],+
same,Salmonella growth or inhibition (MIC test),[2]; [7],−
same,Salmonella growth or inhibition (MIC test),[2]; [8],−
same,Salmonella growth or inhibition (MIC test),[2]; [9],−
same,Salmonella growth or inhibition (MIC test),[2]; [10],−
same,Salmonella growth or inhibition (MIC test),[2]; [11],−
same,Salmonella growth or inhibition (MIC test),[2]; [12],+
same,Salmonella growth or inhibition (MIC test),[2]; [13],+
same,Salmonella growth or inhibition (MIC test),[2]; [14],−
same,Salmonella growth or inhibition (MIC test),[2]; [15],−
same,Salmonella growth or inhibition (MIC test),[2]; [16],−
same,Salmonella growth or inhibition (MIC test),[2]; [17],−
same,Salmonella growth or inhibition (MIC test),[2]; [18],−
same,Salmonella growth or inhibition (MIC test),[2]; [19],−
